Measured values reported in patent US20110071155A1, “Tricyclic Nitrogen Containing Compounds And Their Use As Antibacterials” (priority 2008, published 2011).
In brackets after ≈: the same amount, converted by molar mass.

Legend:
[1] = Antimicrobial Activity Assay: whole-cell broth microdilution (CLSI M7-A7); assay type: cell-based, Gram-positive and Gram-negative organisms; settings: at least one of S. aureus, S. pneumoniae, E. faecalis, H. influenzae, M. catarrhalis, E. coli, read-out: MIC against at least one of the organisms listed
Procedure: Antimicrobial Activity Assay: Whole-cell antimicrobial activity was determined by broth microdilution using the Clinical Laboratory Standards Institute (CLSI) recommended procedure, Document M7-A7, “Methods for Dilution Susceptibility Tests for Bacteria that Grow Aerobically”. Compounds were evaluated against Gram-positive organisms, including Staphylococcus aureus, Streptococcus pneumoniae, and Enterococcus faecalis. In addition, compounds were evaluated against Gram-negative organisms including Haemophilus influenzae, Moraxella catarrhalis, and Escherichia coli. The minimum inhibitory concentration (MIC) was determined as the lowest concentration of compound that inhibited visible growth. A mirror reader was used to assist in determining the MIC endpoint.

[2] = tested on: Mycobacterium tuberculosis H37Rv; assay: Mycobacterium tuberculosis H37Rv Inhibition Assay (resazurin MIC); assay type: cell-based; settings: ATCC 25618 / H37Rv, H37Rv strain (ATCC25618), Middlebrook 7H9+ADC, six days at 37° C., resazurin fluorescence after 48 hours, read-out: MtB MIC

SMILES	MIC [1] [µg/mL]	MIC [2] [µg/mL]
O=c1ccc2ccc(=O)n3c2n1C[C@H]3CN1CCC(NC/C=C/c2cncc(F)c2)CC1 [Example 4, (1R)-1-[(4-{[(2E)-3-(5-fluoro-3-pyridinyl)-2-propen-1-yl]amino}-1-piperidinyl)methyl]-1,2-dihydro-4H,9H-imidazo[1,2,3-ij]-1,8-naphthyridine-4,9-dione]	< 2	0.544 (≈ 1.25 µM)
O=c1ccc2ccc(=O)n3c2n1C[C@H]3CN1CCC(NC/C=C/c2cc(F)ccc2F)CC1 [Example 1, (1R)-1-[(4-{[(2E)-3-(2,5-difluorophenyl)-2-propen-1-yl]amino}-1-piperidinyl)methyl]-1,2-dihydro-4H,9H-imidazo[1,2,3-ij]-1,8-naphthyridine-4,9-dione]	< 2	0.071 (≈ 0.157 µM)
O=c1ccc2ncc(=O)n3c2n1CC3CN1CCC(NC/C=C/c2cccc(F)c2)CC1 (stereo not drawn) [Example 2, 2-[(4-{[(2E)-3-(3-fluorophenyl)-2-propen-1-yl]amino}-1-piperidinyl)methyl]-1,2-dihydro-3H,8H-2a,5,8a-triazaacenaphthylene-3,8-dione]	< 2	0.102 (≈ 0.234 µM)
O=c1ccc2ncc(=O)n3c2n1CC3CN1CCC(NCCCc2cccc(F)c2)CC1 (stereo not drawn) [Example 3, 2-[(4-{[3-(3-fluorophenyl)propyl]amino}-1-piperidinyl)methyl]-1,2-dihydro-3H,8H-2a,5,8a-triazaacenaphthylene-3,8-dione]	< 2	0.82 (≈ 1.87 µM)
O=c1ccc2ncc(=O)n3c2n1CC3CN1CCC(NCCNc2cccc(F)c2)CC1 (stereo not drawn) [Example 7, 2-{[4-({2-[(3-Fluorophenyl)amino]ethyl}amino)-1-piperidinyl]methyl}-1,2-dihydro-3H,8H-2a,5,8a-triazaacenaphthylene-3,8-dione]		0.071 (≈ 0.162 µM)
O=c1ccc2ncc(=O)n3c2n1CC3CN1CCC(NC/C=C/c2cncc(F)c2)CC1 (stereo not drawn) [Example 5, 2-[(4-{[(2E)-3-(5-fluoro-3-pyridinyl)-2-propen-1-yl]amino}-1-piperidinyl)methyl]-1,2-dihydro-3H,8H-2a,5,8a-triazaacenaphthylene-3,8-dione]		0.273 (≈ 0.625 µM)
O=c1ccc2ncc(=O)n3c2n1CC3CN1CCC(NCCOc2cccc(F)c2)CC1 (stereo not drawn) [Example 6, 2-{[4-({2-[(3-fluorophenyl)oxy]ethyl}amino)-1-piperidinyl]methyl}-1,2-dihydro-3H,8H-2a,5,8a-triazaacenaphthylene-3,8-dione]	< 2	0.824 (≈ 1.87 µM)
